According to patent US20050124664A1, “Urea thiadiazole inhibitors of plasminogen activator inhibior-1” (priority 2003, published 2005):

Row | SMILES | melting point
1 | COC(=O)c1cccc(NC(=O)Nc2nnc(-c3cc(Cl)cc(Cl)c3O)s2)c1 [Example 3, 3-{3-[5-(3,5-Dichloro-2-hydroxy-phenyl)-[1,3,4]thiadiazol-2-yl]-ureido}-benzoic Acid Methyl Ester] | 305 °C
2 | COC(=O)c1ccc(NC(=O)Nc2nnc(-c3cc(Cl)cc(Cl)c3O)s2)cc1 [Example 4, 4-{3-[5-(3,5-Dichloro-2-hydroxy-phenyl)-[1,3,4]thiadiazol-2-yl]-ureido}-benzoic Acid Methyl Ester] | 330 °C
